Test results taken from PubChem BioAssay (NCI).
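Protocol summary: plate cells (96-well), add compound at 5 concentrations, incubate 48 h, interpolate endpoints linearly. TGI: concentration producing complete growth inhibition.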

Legend:
Test in all cases: NCI tumour cell line growth inhibition, 48 h
A498 renal = tested on: A498 renal
CAKI-1 renal = tested on: CAKI-1 renal
COLO 205 colon = tested on: COLO 205 colon
DU-145 prostate = tested on: DU-145 prostate
HCC-2998 colon = tested on: HCC-2998 colon
HCT-116 colon = tested on: HCT-116 colon
HOP-62 NSCLC = tested on: HOP-62 NSCLC
HOP-92 NSCLC = tested on: HOP-92 NSCLC
KM12 colon = tested on: KM12 colon
MDA-MB-231 breast = tested on: MDA-MB-231 breast
MOLT-4 leukemia = tested on: MOLT-4 leukemia
OVCAR-8 ovarian = tested on: OVCAR-8 ovarian
RPMI-8226 leukemia = tested on: RPMI-8226 leukemia
SK-OV-3 ovarian = tested on: SK-OV-3 ovarian
SN12C renal = tested on: SN12C renal
TK-10 renal = tested on: TK-10 renal
U251 CNS = tested on: U251 CNS
UACC-257 melanoma = tested on: UACC-257 melanoma
UACC-62 melanoma = tested on: UACC-62 melanoma

COc1ccc(/C(CCl)=C(\Nc2ccccc2)c2ccc(OC)c(OC)c2)cc1OC
TGI (A498 renal): > 100 µM | TGI (CAKI-1 renal): > 100 µM | TGI (COLO 205 colon): > 100 µM | TGI (DU-145 prostate): > 100 µM | TGI (HCC-2998 colon): > 100 µM | TGI (HCT-116 colon): > 100 µM | TGI (HOP-62 NSCLC): > 100 µM | TGI (HOP-92 NSCLC): > 100 µM | TGI (KM12 colon): > 100 µM | TGI (MDA-MB-231 breast): > 100 µM | TGI (MOLT-4 leukemia): > 100 µM | TGI (OVCAR-8 ovarian): > 100 µM | TGI (RPMI-8226 leukemia): > 100 µM | TGI (SK-OV-3 ovarian): > 100 µM | TGI (SN12C renal): > 100 µM | TGI (TK-10 renal): > 100 µM | TGI (U251 CNS): > 100 µM | TGI (UACC-257 melanoma): > 100 µM | TGI (UACC-62 melanoma): > 100 µM

OC(CC(CC(O)(C(F)(F)Cl)C(F)(F)Cl)=NNc1ccccc1)(C(F)(F)Cl)C(F)(F)Cl
TGI (A498 renal): 6.72 µM | TGI (CAKI-1 renal): 6.43 µM | TGI (COLO 205 colon): 3.51 µM | TGI (DU-145 prostate): 9.08 µM | TGI (HCC-2998 colon): > 10 µM | TGI (HCT-116 colon): 3.89 µM | TGI (HOP-62 NSCLC): 7.95 µM | TGI (HOP-92 NSCLC): 5.19 µM | TGI (KM12 colon): 7.54 µM | TGI (MDA-MB-231 breast): 6.63 µM | TGI (MOLT-4 leukemia): > 10 µM | TGI (OVCAR-8 ovarian): > 10 µM | TGI (RPMI-8226 leukemia): > 10 µM | TGI (SK-OV-3 ovarian): > 10 µM | TGI (SN12C renal): > 10 µM | TGI (TK-10 renal): 9.04 µM | TGI (U251 CNS): > 10 µM | TGI (UACC-257 melanoma): 5.24 µM | TGI (UACC-62 melanoma): 4.95 µM

COc1cc(C2S/C(=C/c3ccccc3)C(=O)N2c2cc(Cl)ccc2Cl)cc(OC)c1OC (stereo not given)
TGI (A498 renal): > 100 µM | TGI (CAKI-1 renal): > 100 µM | TGI (COLO 205 colon): > 100 µM | TGI (DU-145 prostate): > 100 µM | TGI (HCC-2998 colon): > 100 µM | TGI (HCT-116 colon): 28.1 µM | TGI (HOP-62 NSCLC): > 100 µM | TGI (HOP-92 NSCLC): > 100 µM | TGI (KM12 colon): 38.8 µM | TGI (MDA-MB-231 breast): > 100 µM | TGI (MOLT-4 leukemia): > 100 µM | TGI (OVCAR-8 ovarian): > 100 µM | TGI (RPMI-8226 leukemia): > 100 µM | TGI (SK-OV-3 ovarian): > 100 µM | TGI (SN12C renal): > 100 µM | TGI (TK-10 renal): > 100 µM | TGI (U251 CNS): > 100 µM | TGI (UACC-257 melanoma): > 100 µM | TGI (UACC-62 melanoma): > 100 µM

COc1ccc(OC)c([N+](=O)[O-])c1-c1nc2sccn2c1/C=N/N=C(N)N
TGI (A498 renal): > 100 µM | TGI (CAKI-1 renal): > 100 µM | TGI (COLO 205 colon): > 100 µM | TGI (DU-145 prostate): > 100 µM | TGI (HCC-2998 colon): 79.4 µM | TGI (HCT-116 colon): > 100 µM | TGI (HOP-62 NSCLC): > 100 µM | TGI (HOP-92 NSCLC): > 100 µM | TGI (KM12 colon): 81.5 µM | TGI (MDA-MB-231 breast): > 100 µM | TGI (MOLT-4 leukemia): 69.5 µM | TGI (OVCAR-8 ovarian): > 100 µM | TGI (RPMI-8226 leukemia): > 100 µM | TGI (SK-OV-3 ovarian): > 100 µM | TGI (SN12C renal): > 100 µM | TGI (TK-10 renal): > 100 µM | TGI (U251 CNS): > 100 µM | TGI (UACC-257 melanoma): > 100 µM | TGI (UACC-62 melanoma): > 100 µM

COC(=O)Nc1nc2ccc(Oc3ccc4nc(NC(=O)OC)[nH]c4c3)cc2[nH]1
TGI (A498 renal): > 51.4 µM | TGI (CAKI-1 renal): > 100 µM | TGI (COLO 205 colon): 7.59 µM | TGI (DU-145 prostate): 6.09 µM | TGI (HCC-2998 colon): > 22.7 µM | TGI (HCT-116 colon): > 100 µM | TGI (HOP-62 NSCLC): 45.6 µM | TGI (HOP-92 NSCLC): > 100 µM | TGI (KM12 colon): > 62.5 µM | TGI (MDA-MB-231 breast): 11 µM | TGI (MOLT-4 leukemia): > 32.8 µM | TGI (OVCAR-8 ovarian): > 100 µM | TGI (RPMI-8226 leukemia): > 26.7 µM | TGI (SK-OV-3 ovarian): > 100 µM | TGI (SN12C renal): > 100 µM | TGI (TK-10 renal): > 63.7 µM | TGI (U251 CNS): 10.9 µM | TGI (UACC-257 melanoma): > 100 µM | TGI (UACC-62 melanoma): > 100 µM

O[C@@]1(c2cccs2)c2cccc(Cl)c2[C@](O)(c2cccs2)c2cccc(Cl)c21
TGI (A498 renal): 25.8 µM | TGI (CAKI-1 renal): > 100 µM | TGI (COLO 205 colon): 38.6 µM | TGI (DU-145 prostate): 64.6 µM | TGI (HCC-2998 colon): 32.7 µM | TGI (HCT-116 colon): 27.4 µM | TGI (HOP-62 NSCLC): > 100 µM | TGI (HOP-92 NSCLC): > 100 µM | TGI (KM12 colon): 34 µM | TGI (MDA-MB-231 breast): 71 µM | TGI (MOLT-4 leukemia): 56.3 µM | TGI (OVCAR-8 ovarian): > 100 µM | TGI (RPMI-8226 leukemia): 66.2 µM | TGI (SK-OV-3 ovarian): 74.2 µM | TGI (SN12C renal): 34.1 µM | TGI (TK-10 renal): 99.4 µM | TGI (U251 CNS): 33.2 µM | TGI (UACC-257 melanoma): 30.3 µM | TGI (UACC-62 melanoma): 23.8 µM

CC1(C)CC(=O)/C(=C/C2CCNC2=S)C(=O)N1 (stereo not given)
TGI (A498 renal): > 100 µM | TGI (CAKI-1 renal): > 100 µM | TGI (COLO 205 colon): > 100 µM | TGI (DU-145 prostate): > 100 µM | TGI (HCC-2998 colon): > 100 µM | TGI (HCT-116 colon): > 100 µM | TGI (HOP-62 NSCLC): > 100 µM | TGI (HOP-92 NSCLC): > 100 µM | TGI (KM12 colon): > 100 µM | TGI (MDA-MB-231 breast): > 100 µM | TGI (MOLT-4 leukemia): > 100 µM | TGI (OVCAR-8 ovarian): > 100 µM | TGI (RPMI-8226 leukemia): > 100 µM | TGI (SK-OV-3 ovarian): > 100 µM | TGI (SN12C renal): > 100 µM | TGI (TK-10 renal): > 100 µM | TGI (U251 CNS): > 100 µM | TGI (UACC-257 melanoma): > 100 µM | TGI (UACC-62 melanoma): > 100 µM

Nc1ccc(-c2ncc3cc(-c4cccc(-c5cc6cnc(-c7ccc(N)cc7)nc6c6ccccc56)c4)c4ccccc4c3n2)cc1
TGI (A498 renal): > 100 µM | TGI (CAKI-1 renal): > 100 µM | TGI (COLO 205 colon): > 100 µM | TGI (DU-145 prostate): > 100 µM | TGI (HCC-2998 colon): > 100 µM | TGI (HCT-116 colon): > 100 µM | TGI (HOP-62 NSCLC): > 100 µM | TGI (HOP-92 NSCLC): > 100 µM | TGI (KM12 colon): > 100 µM | TGI (MDA-MB-231 breast): > 100 µM | TGI (MOLT-4 leukemia): > 100 µM | TGI (OVCAR-8 ovarian): > 100 µM | TGI (RPMI-8226 leukemia): > 100 µM | TGI (SK-OV-3 ovarian): > 100 µM | TGI (SN12C renal): > 100 µM | TGI (TK-10 renal): > 100 µM | TGI (U251 CNS): > 100 µM | TGI (UACC-257 melanoma): > 100 µM | TGI (UACC-62 melanoma): > 100 µM

CC1CC(C)[C@H](O)C([C@H](O)CC2CC(=O)N(C)C(=O)C2)C1 (stereo not given in full)
TGI (A498 renal): > 100 µM | TGI (CAKI-1 renal): > 100 µM | TGI (COLO 205 colon): > 100 µM | TGI (DU-145 prostate): > 100 µM | TGI (HCC-2998 colon): > 100 µM | TGI (HCT-116 colon): > 100 µM | TGI (HOP-62 NSCLC): > 100 µM | TGI (HOP-92 NSCLC): > 100 µM | TGI (KM12 colon): > 100 µM | TGI (MDA-MB-231 breast): > 100 µM | TGI (MOLT-4 leukemia): > 100 µM | TGI (OVCAR-8 ovarian): > 100 µM | TGI (RPMI-8226 leukemia): > 100 µM | TGI (SK-OV-3 ovarian): > 100 µM | TGI (SN12C renal): > 100 µM | TGI (TK-10 renal): > 100 µM | TGI (U251 CNS): > 100 µM | TGI (UACC-257 melanoma): > 100 µM | TGI (UACC-62 melanoma): > 100 µM

Cc1ccc(N/C(Sc2ccccc2)=C(/C(Cl)=C(Cl)Cl)[N+](=O)[O-])c(C)c1
TGI (A498 renal): 53.4 µM | TGI (CAKI-1 renal): 30.7 µM | TGI (COLO 205 colon): 35.3 µM | TGI (DU-145 prostate): > 87.1 µM | TGI (HCC-2998 colon): 36 µM | TGI (HCT-116 colon): 30.8 µM | TGI (HOP-62 NSCLC): 59.7 µM | TGI (HOP-92 NSCLC): 45.8 µM | TGI (KM12 colon): 32.2 µM | TGI (MDA-MB-231 breast): 33.2 µM | TGI (MOLT-4 leukemia): > 100 µM | TGI (OVCAR-8 ovarian): > 100 µM | TGI (RPMI-8226 leukemia): 64.8 µM | TGI (SK-OV-3 ovarian): 99.2 µM | TGI (SN12C renal): 43.1 µM | TGI (TK-10 renal): > 100 µM | TGI (U251 CNS): 26.7 µM | TGI (UACC-257 melanoma): 38.2 µM | TGI (UACC-62 melanoma): 62.2 µM
